This note sets out measurements from patent publication US20140107021A1 (priority 2010, published 2014).

Read-outs that look alike come from different tables or passages of the source. Square brackets hold non-standard residues; d marks the D form. Side chains are listed from the residue outwards. Ends that are not written are not given here. Peptide text beside a SMILES is read from it. * marks the point of attachment. Carboxymethyl = O=C(O)C*; CH2CH2COOH = O=C(O)CC*

Data set [1] deals with T1, glucagon receptor (Homo sapiens, UniProt P47871). Kind of data set: cell-based. From the text: HEK293 cells co-transfected with the receptor and luciferase gene linked to a cAMP responsive element were employed for the bioassay.
T1 sequence (P47871 26-477): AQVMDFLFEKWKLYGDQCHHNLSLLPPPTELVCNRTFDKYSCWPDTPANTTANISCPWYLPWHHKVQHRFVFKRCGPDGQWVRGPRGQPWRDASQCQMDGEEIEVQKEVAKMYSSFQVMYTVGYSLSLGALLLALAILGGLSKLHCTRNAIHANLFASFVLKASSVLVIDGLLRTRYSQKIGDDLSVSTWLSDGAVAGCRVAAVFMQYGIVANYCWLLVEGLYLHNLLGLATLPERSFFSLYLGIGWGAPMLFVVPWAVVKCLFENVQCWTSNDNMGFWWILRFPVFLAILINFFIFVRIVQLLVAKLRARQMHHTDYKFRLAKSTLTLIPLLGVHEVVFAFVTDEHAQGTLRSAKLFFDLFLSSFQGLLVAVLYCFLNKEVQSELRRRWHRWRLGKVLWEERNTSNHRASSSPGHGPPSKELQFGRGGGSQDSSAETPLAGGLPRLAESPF
All EC50s and IC50s are reported in the following examples in nM, unless indicated otherwise.

The target in data set [2] is T1, glucagon receptor. Kind of data set: glucagon receptor binding. Details: expressed in transfected cells; host or cells: HEK293.
A further data set is described as follows: solubility at pH 6-8. It counts as physicochemical.
The mark [3] stands for this setting: Table G, average ±STD of at least three experiments, same values as receptor binding in Table I, read-out: IC50.
The mark [4] stands for this setting: read-out: IC50(nM) (cΛMP, inhibit 0.2 mM Glucagon), Table L, inhibit 0.2 mM Glucagon.
Setting [5] is: Table L, read-out: IC50(nM) (Receptor binding).
[6] abbreviates: Table L, inhibit 0.2 mM Glucagon.

As for `CSCC[C@H](NC(=O)[C@H](CC(C)C)NC(=O)[C@H](Cc1c[nH]c2ccccc12)NC(=O)[C@H](CCC(N)=O)NC(=O)[C@@H](NC(=O)[C@H](Cc1ccccc1)NC(=O)[C@H](CC(=O)O)NC(=O)[C@H](CCC(N)=O)NC(=O)[C@H](C)NC(=O)[C@H](CCCNC(=N)N)NC(=O)[C@H](CCCNC(=N)N)NC(=O)[C@H](CO)NC(=O)[C@H](CC(=O)O)NC(=O)[C@H](CC(C)C)NC(=O)[C@H](Cc1ccc(O)cc1)NC(=O)[C@H](CCCCN)NC(=O)[C@H](CO)NC(=O)[C@H](Cc1ccc(O)cc1)NC(=O)[C@H](CCCC(=O)O)NC(=O)[C@H](CO)NC(=O)[C@@H](NC(=O)[C@@H](N)Cc1ccccc1)[C@@H](C)O)C(C)C)C(=O)N[C@@H](CC(N)=O)C(=O)N[C@H](C(N)=O)[C@@H](C)O` [(hGlu^9]Glucagon(aa6-29)-NH2] (HELM PEPTIDE1{F.T.S.[O=C(O)CCC[C@H](N[*:1])C(=O)[*:2]].Y.S.K.Y.L.D.S.R.R.A.Q.D.F.V.Q.W.L.M.N.T.[am]}$$$$V2.0; N-terminus assumed), on glucagon receptor [1], the Kb is 537 nM. Further, the “cAMP pA2” value at glucagon receptor [1] (Table I) amounted to 6.27 ± 0.11. Besides, the half-maximal inhibitory concentration (IC50) at glucagon receptor [2] (setting [3]) is 163 ± 70.8 nM.

The compound `CSCC[C@H](NC(=O)[C@H](CC(C)C)NC(=O)[C@H](Cc1c[nH]c2ccccc12)NC(=O)[C@H](CCC(N)=O)NC(=O)[C@@H](NC(=O)[C@H](Cc1ccccc1)NC(=O)[C@H](CC(=O)O)NC(=O)[C@H](CCC(N)=O)NC(=O)[C@H](C)NC(=O)[C@H](CCCNC(=N)N)NC(=O)[C@H](CCCNC(=N)N)NC(=O)[C@H](CO)NC(=O)[C@H](CC(=O)O)NC(=O)[C@H](CC(C)C)NC(=O)[C@H](Cc1ccc(O)cc1)NC(=O)[C@H](CCCCN)NC(=O)[C@H](CO)NC(=O)[C@H](Cc1ccc(O)cc1)NC(=O)[C@H](CSCC(=O)O)NC(=O)[C@H](CO)NC(=O)[C@@H](NC(=O)[C@@H](N)Cc1ccccc1)[C@@H](C)O)C(C)C)C(=O)N[C@@H](CC(N)=O)C(=O)N[C@H](C(N)=O)[C@@H](C)O` [[(CSA-1)^9]Glucagon(aa6-29)-NII2, [C^9(SCH2COOH)]Glucagon(aa6-29)-NH2] (H-FTSC(Carboxymethyl)YSKYLDSRRAQDFVQWLMNT-NH2; N-terminus assumed) had a Kb at glucagon receptor [1] of 209 nM. The “cAMP pA2” value at glucagon receptor [1] (Table I) came to 6.68 ± 1.05. The IC50 at glucagon receptor [2] (setting [3]) came out at 107 ± 5.37 nM.

On glucagon receptor [1], `CSCC[C@H](NC(=O)[C@H](CC(C)C)NC(=O)[C@H](Cc1c[nH]c2ccccc12)NC(=O)[C@H](CCC(N)=O)NC(=O)[C@@H](NC(=O)[C@H](Cc1ccccc1)NC(=O)[C@H](CC(=O)O)NC(=O)[C@H](CCC(N)=O)NC(=O)[C@H](C)NC(=O)[C@H](CCCNC(=N)N)NC(=O)[C@H](CCCNC(=N)N)NC(=O)[C@H](CO)NC(=O)[C@H](CC(=O)O)NC(=O)[C@H](CC(C)C)NC(=O)[C@H](Cc1ccc(O)cc1)NC(=O)[C@H](CCCCN)NC(=O)[C@H](CO)NC(=O)[C@H](Cc1ccc(O)cc1)NC(=O)[C@H](CSCCC(=O)O)NC(=O)[C@H](CO)NC(=O)[C@@H](NC(=O)[C@@H](N)Cc1ccccc1)[C@@H](C)O)C(C)C)C(=O)N[C@@H](CC(N)=O)C(=O)N[C@H](C(N)=O)[C@@H](C)O` [[(CSA-2)^9]Glucagon(aa6-29)-NH2, [C^9(SCH2CH2COOH)]Glucagon(aa6-29)-NH2] (H-FTSC(CH2CH2COOH)YSKYLDSRRAQDFVQWLMNT-NH2; N-terminus assumed) gave a Kb of 229 nM. Moreover, the “cAMP pA2” value on glucagon receptor [1] (Table I) is listed as 6.64 ± 0.29. The IC50 on glucagon receptor [2] (setting [3]) was 146 ± 36.9 nM.

Take `CSCC[C@H](NC(=O)[C@H](CC(C)C)NC(=O)[C@H](Cc1c[nH]c2ccccc12)NC(=O)[C@H](CCC(N)=O)NC(=O)[C@@H](NC(=O)[C@H](Cc1ccccc1)NC(=O)[C@H](CC(=O)O)NC(=O)[C@H](CCC(N)=O)NC(=O)[C@H](C)NC(=O)[C@H](CCCNC(=N)N)NC(=O)[C@H](CCCNC(=N)N)NC(=O)[C@H](CO)NC(=O)[C@H](CC(=O)O)NC(=O)[C@H](CC(C)C)NC(=O)[C@H](Cc1ccc(O)cc1)NC(=O)[C@H](CCCCN)NC(=O)[C@H](CO)NC(=O)[C@H](Cc1ccc(O)cc1)NC(=O)[C@H](CC(=O)O)NC(=O)[C@H](CO)NC(=O)[C@@H](NC(=O)[C@@H](O)Cc1ccccc1)[C@@H](C)O)C(C)C)C(=O)N[C@@H](CC(=O)O)C(=O)N[C@H](C(N)=O)[C@@H](C)O` [[PLA6, D9, D28]Glucagon(aa6-29)-NH2]: the “Solubility (%, pH 6-8)” value in “solubility at pH 6-8” worked out at 100%.

In turn, `CSCC[C@H](NC(=O)[C@H](CC(C)C)NC(=O)[C@H](Cc1c[nH]c2ccccc12)NC(=O)[C@H](CCC(N)=O)NC(=O)[C@@H](NC(=O)[C@H](Cc1ccccc1)NC(=O)[C@H](CC(=O)O)NC(=O)[C@H](CCC(N)=O)NC(=O)[C@H](C)NC(=O)[C@H](CCCNC(=N)N)NC(=O)[C@H](CCCNC(=N)N)NC(=O)[C@H](CO)NC(=O)[C@H](CC(=O)O)NC(=O)[C@H](CC(C)C)NC(=O)[C@H](Cc1ccc(O)cc1)NC(=O)[C@H](CCCCN)NC(=O)[C@H](CO)NC(=O)[C@H](Cc1ccc(O)cc1)NC(=O)[C@H](CC(=O)O)NC(=O)[C@H](CO)NC(=O)[C@@H](NC(=O)[C@@H](O)Cc1ccccc1)[C@@H](C)O)C(C)C)C(=O)N[C@@H](CC(N)=O)C(=O)N[C@H](C(=O)O)[C@@H](C)O` [[PLA6, D9]Glucagon(aa6-29)-COOH] (HELM PEPTIDE1{[O=C([C@@H](O)Cc1ccccc1)[*:2]].T.S.D.Y.S.K.Y.L.D.S.R.R.A.Q.D.F.V.Q.W.L.M.N.T}$$$$V2.0) yielded an IC50 against glucagon receptor [1] (IC50(nM) (cAMP, inhibit Glucagon) 0.1 nM, Table J, inhibit 0.1 nM glucagon) of 13.2 nM. Further, the “Solubility (%, pH 6-8)” value in “solubility at pH 6-8” is reported as 96%.

At glucagon receptor [1], `CSCC[C@H](NC(=O)[C@H](CC(C)C)NC(=O)[C@H](Cc1c[nH]c2ccccc12)NC(=O)[C@H](CCC(N)=O)NC(=O)[C@@H](NC(=O)[C@H](Cc1ccccc1)NC(=O)[C@H](CC(=O)O)NC(=O)[C@H](CCC(N)=O)NC(=O)[C@H](C)NC(=O)[C@H](CCCNC(=N)N)NC(=O)[C@H](CCCNC(=N)N)NC(=O)[C@H](CO)NC(=O)[C@H](CC(=O)O)NC(=O)[C@H](CC(C)C)NC(=O)[C@H](Cc1ccc(O)cc1)NC(=O)[C@H](CCCCN)NC(=O)[C@H](CO)NC(=O)[C@H](Cc1ccc(O)cc1)NC(=O)[C@H](CCS(=O)(=O)O)NC(=O)[C@H](CO)NC(=O)[C@@H](NC(=O)[C@@H](N)Cc1ccccc1)[C@@H](C)O)C(C)C)C(=O)N[C@@H](CC(N)=O)C(=O)N[C@H](C(N)=O)[C@@H](C)O` [[hCys^9(SO3H)]Glucagon(aa6-29)-NH2] (HELM PEPTIDE1{F.T.S.[O=C([C@H](CCS(=O)(=O)O)N[*:1])[*:2]].Y.S.K.Y.L.D.S.R.R.A.Q.D.F.V.Q.W.L.M.N.T.[am]}$$$$V2.0) gave a Kb of 69.2 nM. At glucagon receptor [1] (Table I), the “cAMP pA2” value worked out at 7.16 ± 0.51. The IC50 at glucagon receptor [1] (cAMP IC50(nM), Table H) was determined as 133 nM; on glucagon receptor [2] (Table H, same values as receptor binding in Table I, read-out: IC50) it was 59.1 ± 18.1 nM.

Regarding “FTSEYSKYLDSRRAQDFVQWLMNT-NH2 [[Glu^9]Glucagon(aa6-29)-NH2]”, at glucagon receptor [1], the Kb is 69.2 nM, the “cAMP (I/A)50” value is reported as 486 and the “cAMP pA2” value turned out to be 7.16 ± 0.27. Besides, the IC50 at glucagon receptor [2] (setting [3]) was 36.4 ± 5.23 nM.

As for “H-LTFTSEYSKYLDSRRAQDFVQWLMNT-NH2 [[Leu^4, Glu^9]Glucagon(aa4-29)-NH2]”, the IC50 on glucagon receptor [2] (setting [3]) was determined as 36.4 ± 8.69 nM.

For “SQGTTSDYSKYLDSRRAQDFVQWLMNT-NH2 [[desHis^1, desPhe^6]Glucagon-NH2]”, the IC50 on glucagon receptor [2] (Table E, read-out: Receptor Binding IC50) is 130 ± 44.9 nM.

On to “TSEYSKYLDSRRAQDFVQWLMNT-NH2 [[Glu^9]Glucagon(aa7-29)-NH2]”, for which the IC50 on glucagon receptor [2] (setting [3]) was greater than 10000 nM.

Turning to “[C5(1.2 kDaPEG), E9]Glucagon(aa5-29)-NII2”, the IC50 at glucagon receptor [1] (setting [4]) came out at 2280 nM; at glucagon receptor [2] (setting [5]), 1080 ± 268 nM.

“[C8(20 kDaPEG), E9]Glucagon(aa6-29)-NH2 (FTC(PEG 20 kDa)EYSKYLDSRRAQDFVQWLMNT-NH2)”: the “IC50(nM) (cΛMP, inhibit 0.2 mM Glucagon)” value in the data set with glucagon receptor [1] (setting [6]) is given as “no antagonism”. Moreover, the IC50 with glucagon receptor [2] (setting [5]) is greater than 1000 nM.

For the compound “[E9, C11(20 kDaPEG)]Glucagon(aa6-29)-NH2 (FTSEYC(PEG 20 kDa)KYLDSRRAQDFVQWLMNT-NH2)”, the “IC50(nM) (cΛMP, inhibit 0.2 mM Glucagon)” value with glucagon receptor [1] (setting [6]) is “no antagonism”. The IC50 in the data set with glucagon receptor [2] (setting [5]) is greater than 1000 nM.

In the case of “[E9, C24(20 kDaPEG)]Glucagon(aa6-29)-NH2 (FTSEYSKYLDSRRAQDFVC(PEG 20 kDa)WLMNT-NH2; not fully specified (residue 1))”, in the data set with glucagon receptor [1] (setting [6]), the “IC50(nM) (cΛMP, inhibit 0.2 mM Glucagon)” value is recorded as “no antagonism”. For the same compound, the IC50 with glucagon receptor [2] (setting [5]) was greater than 1000 nM.

As for “[K5(CH2CH2S-20 kDaPEG), E9]Glucagon(aa5-29)-NH2 (K([CH2CH2S-PEG 20 kDa])FTSEYSKYLDSRRAQDFVQWLMNT-NH2)”, in the data set with glucagon receptor [1] (setting [6]), the “IC50(nM) (cΛMP, inhibit 0.2 mM Glucagon)” value is recorded as “no antagonism”. In addition, in the data set with glucagon receptor [2] (setting [5]), the IC50 was greater than 10000 nM.

Consider “[Phe6, E9, C24(20 kDaPEG)]Glucagon aa6-29)-NH2 (FTSEYSKYLDSRRAQDFVC(PEG20kDa)WLMNT-NH2)”, for which the “IC50(nM) (cΛMP, inhibit 0.2 mM Glucagon)” value with glucagon receptor [1] (setting [6]) is on record as “no antagonism”. Besides, in the data set with glucagon receptor [2] (setting [5]), the IC50 was greater than 10000 nM.

For the compound “[d-Cys5(20 kDaPEG, E9]Glucagon(aa5-29)-NH2 ([dC](PEG 20 kDa)FTSEYSKYLDSRRAQDFVQWLMNT-NH2)”, the IC50 in the data set with glucagon receptor [1] (setting [4]) is 14800 nM; with glucagon receptor [2] (setting [5]) it was greater than 10000 nM.
